Measurements as given in US20230085307A1, “PYRIDAZINONE COMPOUND AND HERBICIDE” (NISSAN CHEMICAL CORPORATION, priority 2019, published 2023).

Legend:
barnyard grass [1] = assay: Test Example 3: herbicidal effect by foliage application, Wagner pot (Table 18, symbol H); format: in vivo, barnyard grass (Echinochloa crus-galli); conditions: 320 g/ha
Procedure, shortened: (§1)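 Plants were sown in alluvial soil held under 0.1–0.5 cm standing water and grown 14 days in a greenhouse at 25–30 °C. An emulsifiable formulation, water-diluted to the set dose, was then sprayed onto the foliage, and effects were scored three weeks later using previously defined criteria.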

Chinese sprangletop = assay: Test Example 3: herbicidal effect by foliage application, Wagner pot (Table 18, symbol D); format: in vivo, chinese sprangletop (Leptochloa chinensis); conditions: 320 g/ha
Procedure, shortened: as §1

rice flat sedge = assay: Test Example 3: herbicidal effect by foliage application, Wagner pot (Table 18, symbol E); format: in vivo, rice flat sedge (Cyperus iria); conditions: 320 g/ha
Procedure, shortened: as §1

southern crabgrass [2] = assay: Test Example 4: herbicidal effect by soil treatment (Table 19, symbol F); format: in vivo, southern crabgrass (Digitaria ciliaris); conditions: amount of applied herbicide 320 g/ha
Procedure, shortened: (§2)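 Herbicidal effect was rated 3 weeks after treatment, using the scoring criteria of an earlier test. The compound, formulated as an emulsion and diluted in water to a set herbicide amount, had been sprayed uniformly on soil over freshly sown seeds. Growth took place in a greenhouse at 25° C. to 30° C.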

green foxtail [3] = assay: Test Example 4: herbicidal effect by soil treatment (Table 19, symbol G); format: in vivo, green foxtail (Setaria viridis); conditions: amount of applied herbicide 320 g/ha
Procedure, shortened: as §2

barnyard grass [4] = assay: Test Example 4: herbicidal effect by soil treatment (Table 19, symbol H); format: in vivo, barnyard grass (Echinochloa crus-galli); conditions: amount of applied herbicide 320 g/ha
Procedure, shortened: as §2

wild oat [5] = assay: Test Example 4: herbicidal effect by soil treatment (Table 19, symbol I); format: in vivo, wild oat (Avena fatua); conditions: amount of applied herbicide 320 g/ha
Procedure, shortened: as §2

blackgrass [6] = assay: Test Example 4: herbicidal effect by soil treatment (Table 19, symbol J); format: in vivo, blackgrass (Alopecurus myosuroides); conditions: amount of applied herbicide 320 g/ha
Procedure, shortened: as §2

Italian ryegrass [7] = assay: Test Example 4: herbicidal effect by soil treatment (Table 19, symbol K); format: in vivo, Italian ryegrass (Lolium multiflorum); conditions: amount of applied herbicide 320 g/ha
Procedure, shortened: as §2

windgrass [8] = assay: Test Example 4: herbicidal effect by soil treatment (Table 19, symbol L); format: in vivo, windgrass (Apera spica-venti); conditions: amount of applied herbicide 320 g/ha
Procedure, shortened: as §2

velvetleaf [9] = assay: Test Example 4: herbicidal effect by soil treatment (Table 19, symbol M); format: in vivo, velvetleaf (Abutilon theophrasti); conditions: amount of applied herbicide 320 g/ha
Procedure, shortened: as §2

redroot pigweed [10] = assay: Test Example 4: herbicidal effect by soil treatment (Table 19, symbol N); format: in vivo, redroot pigweed (Amaranthus retroflexus); conditions: amount of applied herbicide 320 g/ha
Procedure, shortened: as §2

lambsquarters [11] = assay: Test Example 4: herbicidal effect by soil treatment (Table 19, symbol O); format: in vivo, lambsquarters (Chenopodium album); conditions: amount of applied herbicide 320 g/ha
Procedure, shortened: as §2

chickweed [12] = assay: Test Example 4: herbicidal effect by soil treatment (Table 19, symbol P); format: in vivo, common chickweed (Stellaria media); conditions: amount of applied herbicide 320 g/ha
Procedure, shortened: as §2

false cleavers [13] = assay: Test Example 4: herbicidal effect by soil treatment (Table 19, symbol Q); format: in vivo, false cleavers (Galium spurium); conditions: amount of applied herbicide 320 g/ha
Procedure, shortened: as §2

persian speedwell [14] = assay: Test Example 4: herbicidal effect by soil treatment (Table 19, symbol R); format: in vivo, Persian speedwell (Veronica persica); conditions: amount of applied herbicide 320 g/ha
Procedure, shortened: as §2

southern crabgrass [15] = assay: Test Example 5: herbicidal effect by foliage application, plastic box (Table 20, symbol F); format: in vivo, southern crabgrass (Digitaria ciliaris); conditions: foliage application, 320 g/ha, three weeks after application
Procedure, shortened: (§3)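 Foliar spray test: emulsion formulation diluted in water to a set application rate, sprayed onto 14-day-old plants raised in diluvial soil at 25° C to 30° C under glass. Both herbicidal effect and crop effect rated visually three weeks later.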

green foxtail [16] = assay: Test Example 5: herbicidal effect by foliage application, plastic box (Table 20, symbol G); format: in vivo, green foxtail (Setaria viridis); conditions: foliage application, 320 g/ha, three weeks after application
Procedure, shortened: as §3

barnyard grass [17] = assay: Test Example 5: herbicidal effect by foliage application, plastic box (Table 20, symbol H); format: in vivo, barnyard grass (Echinochloa crus-galli); conditions: foliage application, 320 g/ha, three weeks after application
Procedure, shortened: as §3

wild oat [18] = assay: Test Example 5: herbicidal effect by foliage application, plastic box (Table 20, symbol I); format: in vivo, wild oat (Avena fatua); conditions: foliage application, 320 g/ha, three weeks after application
Procedure, shortened: as §3

blackgrass [19] = assay: Test Example 5: herbicidal effect by foliage application, plastic box (Table 20, symbol J); format: in vivo, blackgrass (Alopecurus myosuroides); conditions: foliage application, 320 g/ha, three weeks after application
Procedure, shortened: as §3

Italian ryegrass [20] = assay: Test Example 5: herbicidal effect by foliage application, plastic box (Table 20, symbol K); format: in vivo, Italian ryegrass (Lolium multiflorum); conditions: foliage application, 320 g/ha, three weeks after application
Procedure, shortened: as §3

windgrass [21] = assay: Test Example 5: herbicidal effect by foliage application, plastic box (Table 20, symbol L); format: in vivo, windgrass (Apera spica-venti); conditions: foliage application, 320 g/ha, three weeks after application
Procedure, shortened: as §3

velvetleaf [22] = assay: Test Example 5: herbicidal effect by foliage application, plastic box (Table 20, symbol M); format: in vivo, velvetleaf (Abutilon theophrasti); conditions: foliage application, 320 g/ha, three weeks after application
Procedure, shortened: as §3

redroot pigweed [23] = assay: Test Example 5: herbicidal effect by foliage application, plastic box (Table 20, symbol N); format: in vivo, redroot pigweed (Amaranthus retroflexus); conditions: foliage application, 320 g/ha, three weeks after application
Procedure, shortened: as §3

lambsquarters [24] = assay: Test Example 5: herbicidal effect by foliage application, plastic box (Table 20, symbol O); format: in vivo, lambsquarters (Chenopodium album); conditions: foliage application, 320 g/ha, three weeks after application
Procedure, shortened: as §3

chickweed [25] = assay: Test Example 5: herbicidal effect by foliage application, plastic box (Table 20, symbol P); format: in vivo, common chickweed (Stellaria media); conditions: foliage application, 320 g/ha, three weeks after application
Procedure, shortened: as §3

false cleavers [26] = assay: Test Example 5: herbicidal effect by foliage application, plastic box (Table 20, symbol Q); format: in vivo, false cleavers (Galium spurium); conditions: foliage application, 320 g/ha, three weeks after application
Procedure, shortened: as §3

persian speedwell [27] = assay: Test Example 5: herbicidal effect by foliage application, plastic box (Table 20, symbol R); format: in vivo, Persian speedwell (Veronica persica); conditions: foliage application, 320 g/ha, three weeks after application
Procedure, shortened: as §3

Row | Compound | herbicidal effect on barnyard grass (H) (barnyard grass [1]) | herbicidal effect on Chinese sprangletop (D) (Chinese sprangletop) | herbicidal effect on rice flat sedge (E) (rice flat sedge) | F: southern crabgrass, herbicidal effect grade (southern crabgrass [2]) | G: green foxtail, herbicidal effect grade (green foxtail [3]) | H: barnyard grass, herbicidal effect grade (barnyard grass [4]) | I: wild oat, herbicidal effect grade (wild oat [5]) | J: blackgrass, herbicidal effect grade (blackgrass [6]) | K: Italian ryegrass, herbicidal effect grade (Italian ryegrass [7]) | L: windgrass, herbicidal effect grade (windgrass [8]) | M: velvetleaf, herbicidal effect grade (velvetleaf [9]) | N: redroot pigweed, herbicidal effect grade (redroot pigweed [10]) | O: lambsquarters, herbicidal effect grade (lambsquarters [11]) | P: chickweed, herbicidal effect grade (chickweed [12]) | Q: false cleavers, herbicidal effect grade (false cleavers [13]) | R: persian speedwell, herbicidal effect grade (persian speedwell [14]) | F: southern crabgrass, herbicidal effect grade (southern crabgrass [15]) | G: green foxtail, herbicidal effect grade (green foxtail [16]) | H: barnyard grass, herbicidal effect grade (barnyard grass [17]) | I: wild oat, herbicidal effect grade (wild oat [18]) | other results
1 | CCCC(=O)Oc1c(C)nn(C)c(=O)c1-c1c(-c2ccc(OC(C)C)cc2)sc2cc(Cl)ccc12 [3-042] | 4 (Herbicidal rate of 70% or more and less than 90%) | 0 (Herbicidal rate of 5% or less (almost no effect)) | 3 (Herbicidal rate of 40% or more and less than 70%) | 0 (Herbicidal rate of 5% or less (almost no effect)) | 0 (Herbicidal rate of 5% or less (almost no effect)) | 0 (Herbicidal rate of 5% or less (almost no effect)) | 0 (Herbicidal rate of 5% or less (almost no effect)) | 0 (Herbicidal rate of 5% or less (almost no effect)) | 0 (Herbicidal rate of 5% or less (almost no effect)) | 0 (Herbicidal rate of 5% or less (almost no effect)) | 0 (Herbicidal rate of 5% or less (almost no effect)) | 3 (Herbicidal rate of 40% or more and less than 70%) | 0 (Herbicidal rate of 5% or less (almost no effect)) | 0 (Herbicidal rate of 5% or less (almost no effect)) | 0 (Herbicidal rate of 5% or less (almost no effect)) | 0 (Herbicidal rate of 5% or less (almost no effect)) | 0 (Herbicidal rate of 5% or less (almost no effect)) | 0 (Herbicidal rate of 5% or less (almost no effect)) | 0 (Herbicidal rate of 5% or less (almost no effect)) | 0 (Herbicidal rate of 5% or less (almost no effect)) | J: blackgrass, herbicidal effect grade (blackgrass [19]): 0 (Herbicidal rate of 5% or less (almost no effect)); K: Italian ryegrass, herbicidal effect grade (Italian ryegrass [20]): 0 (Herbicidal rate of 5% or less (almost no effect)); L: windgrass, herbicidal effect grade (windgrass [21]): 0 (Herbicidal rate of 5% or less (almost no effect)); M: velvetleaf, herbicidal effect grade (velvetleaf [22]): 3 (Herbicidal rate of 40% or more and less than 70%); N: redroot pigweed, herbicidal effect grade (redroot pigweed [23]): 3 (Herbicidal rate of 40% or more and less than 70%); O: lambsquarters, herbicidal effect grade (lambsquarters [24]): 3 (Herbicidal rate of 40% or more and less than 70%); P: chickweed, herbicidal effect grade (chickweed [25]): 0 (Herbicidal rate of 5% or less (almost no effect)); Q: false cleavers, herbicidal effect grade (false cleavers [26]): 0 (Herbicidal rate of 5% or less (almost no effect)); R: persian speedwell, herbicidal effect grade (persian speedwell [27]): 0 (Herbicidal rate of 5% or less (almost no effect))
2 | COc1ccc(-c2sc3cc(C)ccc3c2-c2c(O)c(C)nn(C)c2=O)cc1 [3-051] | 1 (Herbicidal rate of 5% or more and less than 20%) | 0 (Herbicidal rate of 5% or less (almost no effect)) | 3 (Herbicidal rate of 40% or more and less than 70%) | 0 (Herbicidal rate of 5% or less (almost no effect)) | 0 (Herbicidal rate of 5% or less (almost no effect)) | 0 (Herbicidal rate of 5% or less (almost no effect)) | 0 (Herbicidal rate of 5% or less (almost no effect)) | 0 (Herbicidal rate of 5% or less (almost no effect)) | 0 (Herbicidal rate of 5% or less (almost no effect)) | 0 (Herbicidal rate of 5% or less (almost no effect)) | 0 (Herbicidal rate of 5% or less (almost no effect)) | 0 (Herbicidal rate of 5% or less (almost no effect)) | 0 (Herbicidal rate of 5% or less (almost no effect)) | 0 (Herbicidal rate of 5% or less (almost no effect)) | 0 (Herbicidal rate of 5% or less (almost no effect)) | 4 (Herbicidal rate of 70% or more and less than 90%) | 0 (Herbicidal rate of 5% or less (almost no effect)) | 0 (Herbicidal rate of 5% or less (almost no effect)) | 0 (Herbicidal rate of 5% or less (almost no effect)) | 0 (Herbicidal rate of 5% or less (almost no effect)) | J: blackgrass, herbicidal effect grade (blackgrass [19]): 0 (Herbicidal rate of 5% or less (almost no effect)); K: Italian ryegrass, herbicidal effect grade (Italian ryegrass [20]): 1 (Herbicidal rate of 5% or more and less than 20%); L: windgrass, herbicidal effect grade (windgrass [21]): 0 (Herbicidal rate of 5% or less (almost no effect)); M: velvetleaf, herbicidal effect grade (velvetleaf [22]): 0 (Herbicidal rate of 5% or less (almost no effect)); N: redroot pigweed, herbicidal effect grade (redroot pigweed [23]): 0 (Herbicidal rate of 5% or less (almost no effect)); O: lambsquarters, herbicidal effect grade (lambsquarters [24]): 0 (Herbicidal rate of 5% or less (almost no effect)); P: chickweed, herbicidal effect grade (chickweed [25]): 4 (Herbicidal rate of 70% or more and less than 90%); Q: false cleavers, herbicidal effect grade (false cleavers [26]): 0 (Herbicidal rate of 5% or less (almost no effect)); R: persian speedwell, herbicidal effect grade (persian speedwell [27]): 5 (Herbicidal rate of 90% or more (almost completely withered))
